Assay results published in patent US9394335B2, “Esters of glycyrrhetinic acid, preparation and cosmetic applications thereof” (GIULIANI S.P.A., priority 2012, dated 2016).

Assays:
[1] = test system: expression of the TNF-α gene in NCTC 2544 human keratinocytes; assay: Inflammation assessment assay: expression of the TNF-α gene by RT-PCR in LPS-treated cells; assay type: cell-based; settings: for inhibition of the expression of the TNF-α gene / anti-inflammatory effect (inhibiting the expression of the TNF-α gene): LPS 5 μg/ml; for inhibition of the expression of the TNF-α gene: 48 hrs of treatment, compared to cells treated only with LPS; for anti-inflammatory effect (inhibiting the expression of the TNF-α gene): 2.5-5-10 μM, after 48 hrs of treatment
Experimental: The NCTC 2544 cells were treated at 37° C. for 48 hours, at 5% CO2, with: basal culture medium, containing 2.5% fetal bovine serum (negative control), with: basal culture medium, containing 2.5% fetal bovine serum supplemented with LPS (5 μg/ml) (positive control), with: basal culture medium, containing 2.5% fetal bovine serum supplemented with LPS (5 μg/ml) and 18-β-glycyrrhetinic acid (18-β) at a concentration of 2.5-5-10 μM, with: basal culture medium, containing 2.5% fetal bovine serum supplemented with LPS (5 μg/ml), and POLY-GLY-S at a concentration of 2.5-5-10 μM. The results are expressed as a percentage of inflammation as compared to cells treated with LPS. The values represent the mean values of 2 experiments in duplicate.
The anti-inflammatory effects of ester having formula (Ia) of Example 1 (referred to as ‘POLY-GLY-S’ for shortness of description) have been investigated in an in vitro inflammation model, on NCTC2544 human keratinocytes and using lipopolysaccharide (LPS) from E. coli as mediator of inflammatory state. The effect of derivative in the models used has been compared to that of 18-β-glycyrrhetic acid (referred to as ‘18-β’ for shortness of description).
Furthermore, the in vitro inflammatory potential of POLY-GLY-S towards a positive control (cells treated with 5 μg/ml lipopolysaccharide) was determined. The data obtained have been compared to those obtained, in the same experimental model, using 18-β.
Inflammation Assessment Assay
The expression of the TNF-α gene on NCTC 2544 cells was assessed by RT-PCR.
The gene expression analysis implies four steps: • 1. Cell treatment with active compounds for 48 hrs; • 2. RNA extraction; • 3. cDNA reverse transcription; • 4. quantitative […].
In experimental conditions, in connection with the results obtained in the previous MIT assay, POLY-GLY-S and 18-β have been tested at a concentration of 20 μM (final concentration in the culture medium). Both positive control and negative control have been tested.
When the cells (NCTC 2544 human keratinocytes) had reached about 80% confluence, they were removed with trypsin/EDTA and seeded at a density of 1×10^6 cells/ml in 12-well plates and then incubated at 37° C., 5% CO2 (24 h).
When the cells had reached about 80% confluence, the complete medium was removed; cells were washed with PBS 1× and incubated in EMEN (EBSS) with 2.5% FBS, supplemented with 2 mM L-glutamine, 1% NEAA solution and 1% antibiotic mixture at 37° C., 5% CO2 for at least 4 hrs.
POLY-GLY-S and 18-β were dissolved in EMEN supplemented with 2.5% FBS, 2 mM L-glutamine, 1% NEAA solution and 1% penicillin (10,000 U/ml)/streptomycin (10,000 μg/ml) mixture.
Controls only containing culture medium (negative control) and culture medium plus LPS (5 μg/ml) (positive control) have been included in each plate.
Cells were exposed to increasing concentrations of compounds to be tested, i.e. 2.5-5-10 μM.
To each well LPS at a concentration of 5 μg/ml was added. Each sample was tested in duplicate.
Then cells were incubated at 37° C., 5% CO2 for 24 hrs.
Total RNA was extracted from cells using a single homogeneous solution Tri-reagent (Sigma Aldrich) to isolate RNA following manufacturer's instructions.
The extracted and quantified total RNA was amplified using the “High-Capacity cDNA Reverse transcription Kit” (Applied Biosystems).
RT-PCR was carried out using TaqMan linear probes (Applied Biosystems). These probes are the most used and published detection system for qPCR applications. In stock probes and primer were selected based on previous specific bibliographic studies.
The relative quantification method was used where the gene relative concentration of interest (target) is compared with unknown samples to a calibrator or control sample (untreated cells).
10 μl TaqMan 2× Gene Expression master Mix and 1 μl 20× TaqMan Gene Expression were added to cDNA. […]

[2] = test system: NCTC 2544 human keratinocytes; assay: MTT assay, cell viability; assay type: cell-based; settings: for tolerability by NCTC2544 human keratinocytes: 2.5-5 and 10 μM
Experimental: The data represent mean values ±standard deviation. Each treatment was carried out in duplicate.
The data are expressed as mean values ±standard deviation. Each treatment was carried out in duplicate.
The MTT test is useful to assess in vitro cell viability following the treatment with diluted compounds. The MTT method has been used as an indirect measure of cell viability.
The effects on NCTC 2544 cell proliferation from compounds 18-β and POLY-GLY-S at different concentrations have been examined.
The cells have been plated at low densities and treated with different concentrations of active compounds and negative control, in culture medium EMEM, without phenol red supplemented at 10% with FCS, 2 mM L-glutamine, 1% NEAA solution and 1% antibiotic mixture for 24, 48 and 72 hours and cell viability has been assessed by the MTT assay. The cell viability percentage compared to control (FIGS. 1-2) has been calculated after 24, 48 and 72 hours of incubation. […] The same results have been obtained after a prolonged cells exposure (48-72 hours) to tested compounds for all the considered concentrations.

[3] = cited from earlier work
[4] = 24 hours of incubation, all tested concentrations (18-β 2.5-80 μM, ester (Ia) 0.625-80 μM)
[5] = prolonged exposure 48-72 hours, all considered concentrations

CC1(C)[C@@H](O)CC[C@]2(C)[C@H]3C(=O)C=C4[C@@H]5C[C@@](C)(C(=O)OCC(O)C(O)C(O)C(O)COCC(O)COCC(O)COCC(O)CO)CC[C@]5(C)CC[C@@]4(C)[C@]3(C)CC[C@@H]12 (stereo partly drawn) [POLY-GLY-S, glycyrrhetinic ester of polyglycerol-3-sorbitol]
inhibition of the expression of the TNF-α gene ([1]; 2.5 μM): 43.99%
inhibition of the expression of the TNF-α gene ([1]; 5 μM): 40.71%
inhibition of the expression of the TNF-α gene ([1]; 10 μM): 54.36%
anti-inflammatory effect (inhibiting the expression of the TNF-α gene) [1]: significantly effective
reduction of the expression of the TNF-α gene ([1]; all the concentrations assayed, 48 hours of incubation (conclusions)): at least 50%
tolerability by NCTC2544 human keratinocytes [2]: well tolerated
cytotoxic effect on NCTC2544 compared to control (MTT, % viability) [2, 4]: none
cytotoxic effect on NCTC2544 compared to control (MTT, % viability) [2, 5]: same results

CC1(C)[C@@H](O)CC[C@]2(C)[C@H]3C(=O)C=C4[C@@H]5C[C@@](C)(C(=O)O)CC[C@]5(C)CC[C@@]4(C)[C@]3(C)CC[C@@H]12 [18-β, 18-Beta glycyrrhetinic acid, reference compound]
solubility in ethanol ([3]; ethanol): soluble
solubility in oils ([3]; oils): insoluble
solubility in water ([3]; water): insoluble
anti-inflammatory effect (inhibiting the expression of the TNF-α gene) [1]: no longer had anti-inflammatory effect
tolerability by NCTC2544 human keratinocytes [2]: well tolerated
cytotoxic effect on NCTC2544 compared to control (MTT, % viability) [2, 4]: none
cytotoxic effect on NCTC2544 compared to control (MTT, % viability) [2, 5]: same results
